Ends that are not written are not given here.
Assays:
[1] = tested on: GluR1; test: Immunocytochemical staining of surface and internalized GluR1 in cultured hippocampal neurons; type: cell-based; conditions: 50 μM DFB added 5 min before DHPG stimulation
Description: Immunocytochemical staining. Immunocytochemical staining of heterologous cells was performed as described (Xu et al., supra). For PMA-stimulation experiments, PMA (Sigma Cat #: P8139) at (150 nM) was added 90 minutes prior to live staining. Images were viewed and captured using Nikon E800 epifluorescence microscope fitted with a Princeton Instruments CCD camera. For live staining, neurons cultured on coverslips were incubated at 10° C. with the appropriate primary antibodies at the indicated dilutions in conditioned culture medium for 20 min. They were then washed with PBS and fixed with 4% paraformaldehyde/4% sucrose in PBS for 20 min at room temperature. Cells were permeablized with 0.2% Triton X-100 in PBS for 5 min and then blocked in 10% normal goat serum in PBS for 1 hr at room temperature. If intracellular proteins were of interest, coverslips were then incubated with antibody diluted in 10% normal goat serum for 1 hr at room temperature or overnight at 4° C. Coverslips were washed with PBS and incubated with secondary antibody conjugated to Alexa488 and Alexa555 (1:500 in 10% normal goat serum, Molecular Probes Eugene, Oreg.). Coverslips were mounted using the Prolong Antifade Kit (Molecular Probes, Eugene, Oreg.). For immunocytochemistry studies, mGluR1/5 were activated using the selective agonist (S)-DHPG (Tocris Cat.# 0805) with mGluR5 allosteric potentiator DFB (Tocris Cat.#1625). Neurons were incubated with DFB (50 μM) for 5 min and then DHPG (50 μM) for an additional 5 min in neuronal incubation medium and then transferred into the original incubation medium. […] Cells were incubated at 37° C. to allow endocytosis. At indicated time points, cells were incubated with N-terminal GluR1 mouse antibody (JH 4093; 0.2 μg/100 μl; kind gift from T. […] (to block endocytosis during staining). Cells were then processed for immunofluorescent staining as described above. An acid strip protocol was employed to measure endocytosed antibody labeled GluR1 (Snyder et al., 2001). Neurons were washed with progressively cooler NIM to slow basal endocytosis. Cells were then live labeled at 10° C. with GluR1 N-terminal antibody (0.2 μg/100 μL JH4094) antibody in NIM for 20 min. After washing unbound excess antibody, cells were incubated sequentially with DFB, DHPG, and original incubation medium at 37° C., as described above. After appropriate incubation times, cells were washed with 4° C. TBS. […] Neurons were then washed with 4° C. TBS followed by processing for immunofluorescent staining as described above. All neurons were viewed and captured using UltraVIEW spinning disk confocal microscope (PerkinElmer Life Sciences, Wellesley, Mass., USA) with a Nikon Eclipse TE 200 microscope and a 63× objective (Nikon, Melville, N.Y.). Images were acquired and saved as Tiff files with a dynamic range of 65536 grey levels (16-bit binary). Image analysis was performed using Metamorph imaging software (Universal Imaging, Downingtown, Pa.). For quantification of the punctate structures (e.g. GluR1), images were thresholded by grey value to differentiate single puncta. Segments of dendrites were selected and number of puncta was calculated per […] of length dendrite. Figures show ratios of calculated mean densities (number of puncta per unit length) from treated/control. Error bars were calculated using SEM and Gaussian error propagation. n=number of measured dendrites. Significance was determined by paired Student's T-test.

[2] = tested on: cultured cerebellar Purkinje cells; test: Basal electrophysiological properties and Ca2+ imaging in cultured cerebellar Purkinje cells; type: cell-based, mouse; conditions: TAPI-2 10 μM; GM6001 1 μM; GM6001 control 1 μM; mean ± SEM
Description: (§1) Recording and Ca^2+ imaging in cerebellar cultures. Cultures of embryonic mouse cerebellum were prepared as previously described and recordings were performed according to our previously published method (Leitges et al., Neuron 44:585-94, 2004). […]. Test pulses were delivered using negative current pulses (300-700 nA, 30-80 msec duration). LTD-inducing pairing stimuli consisted of six, 3-s-long depolarizations to 0 mV, each delivered together with a test pulse of glutamate.
(§2) Membrane currents were recorded with an Axopatch 200A amplifier, and digitized at 10 kHz for exogenous glutamate responses and 20 kHz for mEPSCs. Signals were lowpass filtered at 5 kHz (1 kHz for mEPSCs) and acquired using Axograph X software (Axograph Scientific, Sydney, Australia). Recordings in which Rinput or Rseries varied by more than 10% were excluded from the analysis. For analysis of mEPSCs, Axograph X mini analysis software was used. This detected events based on closeness of fit of the mEPSC to a sliding template. Events smaller than − ? 4 pA were discarded. A separate template was created for each recording by averaging 30 of its most unambiguous mEPSCs as selected by eye.
Bis-Fura-2 ratio imaging of intracellular free Ca^2+ in the dendritic shafts of cultured Purkinje cells was accomplished by measuring the background corrected fluorescence ratio at 340 and 380 nm excitation using a cooled CCD camera system. In these experiments, EGTA was removed from the internal saline and replaced with 100 μM bis-Fura-2.

[3] = tested on: Purkinje cells cultured from embryonic mouse cerebellum; test: LTD of glutamate-evoked inward current in cultured Purkinje cells (glutamate test pulses paired with depolarizing steps); type: cell-based; conditions: t=40 min; TAPI-2 10 μM, GM6001 1 μM, GM6001 control compound 1 μM; n=7
Description: as §1, §2
Other studies have shown that LTD in Purkinje cells cultured from embryonic mouse cerebellum requires activation of mGluR1, and is expressed postsynaptically as a reduction in surface AMPA receptors (Chung et al., Science 300:1751-5, 2003; Leitges et al., Neuron 44:585-94, 2004; Linden, PNAS 98:14066-71, 2001; Matsuda et al., EMBO J. 19:2765-74, 2000; Steinberg et al., Neuron 49:845-60, 2006; Wang and Linden, Neuron 25:635-47, 2000). Here, LTD was examined using a purely postsynaptic model in which iontophoretic test pulses of glutamate are applied to voltage-clamped Purkinje cells in culture. Following a baseline recording period, LTD was induced by pairing six 3 sec long depolarizing steps to 0 mV with six glutamate test pulses. When test pulses were resumed after pairing, LTD of the glutamate-evoked inward current was evident (52±9.0% of baseline at t=40 min, n=7 cells, FIG. 6A). […]

[4] = tested on: NPR cleavage at Site A (TACE); test: NPR cleavage assay in transfected HEK293T cells; type: cell-based, rat; conditions: TAPI-2 50 μM; GM6001 25 μM
Description: Cleavage Assay HEK293T cells were plated in OptiMEM (Invitrogen, Carlsbad, Calif.) containing 5% FBS onto 6-well dishes at a density of 4×10^5 cells/mL (2 mL/well) 1 day before transfection. Cells were transfected with NPR in pRK5 using LipofectAMINE 2000 (Invitrogen, Carlsbad Calif.). After 24 hr the medium was replaced with serum-free OptiMEM. […] Samples from each well were obtained at specific time points, immediately placed on ice, centrifuged at 15,000 g to remove cell debris, and then treated with 2% β-mercaptoethanol containing loading buffer. At the end of the time course, the cells were lysed with RIPA buffer, centrifuged to remove cell debris, and treated with 2% β-mercaptoethanol in loading buffer. Samples (20 μL of medium or lysate diluted to 1/5) were run on SDS-PAGE gels and analyzed by Western blotting.

[5] = target: T1, Narp (Rattus norvegicus, UniProt P97738); test: In vitro binding (GST pull down) with myc-Narp
T1 construct: GST-tagged GluR1-12mer (GST-G1-12mer) and myc-tagged full length Narp; made in house; host or cells: 293T cells (myc-Narp, cleared lysate); E. coli (GST fusions, pGEX-4T-2)
T1 sequence (P97738 15-432): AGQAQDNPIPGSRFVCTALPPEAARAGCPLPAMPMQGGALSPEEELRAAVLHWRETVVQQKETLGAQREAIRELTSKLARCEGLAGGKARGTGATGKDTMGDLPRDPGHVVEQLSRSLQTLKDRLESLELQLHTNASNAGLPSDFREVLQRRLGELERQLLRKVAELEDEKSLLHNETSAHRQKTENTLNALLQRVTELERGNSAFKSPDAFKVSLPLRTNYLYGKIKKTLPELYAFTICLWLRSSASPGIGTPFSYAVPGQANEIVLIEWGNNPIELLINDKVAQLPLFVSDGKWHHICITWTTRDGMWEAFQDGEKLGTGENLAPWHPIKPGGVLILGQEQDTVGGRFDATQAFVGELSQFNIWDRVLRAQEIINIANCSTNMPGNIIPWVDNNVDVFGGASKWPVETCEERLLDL
Description: In Vitro Binding. Polynucleotides encoding NAR fragments were subcloned into pGEX-4T-2 vector (Amersham) in the EcoRI and SalI sites. The constructs were confirmed by restriction enzyme digestion, DNA sequencing and fusion protein expression. GST-fusion proteins were purified by bacterial inoculation of one clone containing GST-fusion protein plasmid into 5 mL of LB liquid medium and cultured at 37 C overnight. Cultured bacteria was transferred into 400 mL of LB liquid medium and cultured at 30 C for 3 hours. Protein expression was induced with 5 mM IPTG and the bacteria were cultured at 30 C for another 2 hours. A bacterial pellet was collected and resuspended in 10 mL of lysis buffer (pH 7.4 PBS containing 10 mM sodium pyrophosphate, 1 mM sodium orthovanadate, 1% triton and 0.1% PMSF), sonicated for 10 seconds, 3 times at 4 C. Debris was pelleted with centrifugation at 12,000 rpm at 4 C for 10 minutes. The supernatant was incubated with Glutathione Sepharose 4B beads (Pharmacia) with agitation at 4 C for 2 hours. Beads were washed with lysis buffer+1% triton+0.1% PMSF twice; lysis buffer+PMSF twice; PBS+0.5M NaCl once; and PBS twice. The fusion protein bound beads were then used in the in vitro binding assay. Purified Narp protein preparation was accomplished by splitting 293T cells is into 100 mm culture dishes at the density of 5×10^5 cells/mL. […]

Molecule	DHPG-evoked (dendritic Ca2+ transient) [2]	Depol-evoked (dendritic Ca2+ transient) [2]	Resting Ca2+ [2]	mEPSC 10-90% rise [2]	mEPSC 50% decay [2]	mEPSC amp [2]	glutamate-evoked inward current after LTD induction [3]	also measured
Fc1cccc(C=NN=Cc2cccc(F)c2)c1 [DFB, 3,3′-difluorobenzaldazine]	–	–	–	–	–	–	–	consistency of the DHPG-evoked response [1]: increased the consistency of the DHPG-evoked response
CNC(=O)[C@H](Cc1c[nH]c2ccccc12)NC(=O)[C@@H](CC(=O)NO)CC(C)C [GM6001]	268 ± 39 nM	557 ± 65 nM	123 ± 27 nM	2.0 ± 0.3 msec	8.0 ± 0.6 ms	25 ± 6 pA	106±8.4 % of baseline	PMA-stimulated cleavage at Site A / secretion of LFC-NPR into the medium [4]: inhibited
GST-G1-12mer: bacteria GST-tagged GluR1-12mer (LRRQRIDISRRG; also: GST tag, end not given here)	–	–	–	–	–	–	–	pull down of myc-tagged full length Narp ([5]; GST fusion proteins): pulls down Narp
CNC(=O)C(Cc1c[nH]c2ccccc12)NC(=O)C(CC(C)C)NC(=O)OC(C)(C)C (stereo not drawn) [GM6001 control compound]	277 ± 42 nM	526 ± 55 nM	100 ± 25 nM	1.6 ± 0.3 msec	7.6 ± 0.7 ms	26 ± 6 pA	48±9.8 % of baseline	–
G1-12mer peptide: synthetic 12 amino acid GluR1 NAR1 sequence, Narp binding motif LRRQRIDISRRG (SEQ ID NO:24) (listed as Homo sapiens)	–	–	–	–	–	–	–	in vitro binding between GST-G1-NarI and Narp ([5]; synthetic peptide added): blocked

From patent US20090123940A1, “MOLECULES INVOLVED IN SYNAPTOGENESIS AND USES THEREFOR” (THE JOHNS HOPKINS UNIVERSITY, priority 2007, published 2009)
